From US9511120B2, “Use of the angiotensin-(1-9) peptide or derivatives thereof, use of vectors overexpressing the ACE2 enzyme that produces angiotensin-(1-9) for preparing medicaments useful for preventing, reverting, inhibiting and/or reducing hypertension and/or inducing vasodilation” (PONTIFICA UNIVERSIDAD CATÓLICA DE CHILE, priority 2012, dated 2016) come the findings set out here.

Marks after values point to notes of the source that are not given here. Where no end group is shown, it is not given here.

Holding throughout (type): in vivo, rat
For test [1], the system named is cardiomyocyte hypertrophy of hypertensive rats by pressure overload. The test can be described thus: Goldblatt model: cardiomyocyte area and perimeter. Particulars: GB rats. The text has this:
(§1) Lewis normotensive rats (weight 150±10 g), which were separated randomly into the experimental hypertension model group or GB (Ocaranza et al. J. Hypertens. 20:413-20, 2002) or control group (S) were used. The latter corresponded to pseudo-operated animals. All animals were maintained under controlled conditions of light and darkness and had free access to food and water. Four weeks after surgery and at a blood pressure above 140 mmHg, GB rats were randomized for the chronic administration of angiotensin-(1-9) through an osmotic pump (602 ng kg^−1min^−1) via the jugular vein during two weeks. The animals were euthanized after 6 weeks post-surgery.
The middle portion of the left ventricle (LV) was dehydrated at room temperature for 24 h in Bouin and then embedded in paraffin. Sections of 10-15 μm thick were taken and stained with hematoxylin-eosin, to be examined later in a light microscope in order to observe their general morphological characteristics. Cardiomyocyte size was determined according to Nakamura et al. (Circulation, 98:794-9, 1998). […] The cardiomyocyte area and perimeter were measured and recorded, using the Nis-Element program (Ocaranza et al. J. Hypertens., 28:1054-64, 2010). All measurements were performed by a blinded observer, and at least 80 images of cells per animal, which were randomly selected, were analyzed.

Test [2] has as its system hypertensive myocardial fibrosis by pressure overload. The test is described as follows: Goldblatt model: volume fraction of total collagen in the ventricle (picrosirius red). The note with it: GB rats.
From the text: as §1
Sections of 5 μm of ventricle, previously included in Bouin, which were treated with picrosirius red, were used. The tissue was examined under light microscopy, images were captured with a Nikon DS Fi1 camera and projected on a monitor. The Matlab program was used to measure the interstitial collagen content according to the procedure described by Ocaranza et al. (J. Cardiovasc. Pharmacol. 40:246-54, 2002).

In test [3] the test system is thoracic aortas of hypertensive rats by pressure overload. The test is described as follows: Goldblatt model: aortic hypertrophy by morphometry. Particulars: GB rats, thoracic aorta.
From the text: as §1
Aortic hypertrophy was determined by morphometry. Sections of the descending aorta of 5 μm thick, which were previously fixed in Bouin (1.3% picric acid, 9.5% formaldehyde and 4.8% acetic acid) for 24 hours, embedded in paraffin and stained with hematoxylin-eosin, were used, to be examined later in a light microscope as described by Igase et al. (Am. J. Physiol. 289:H1013-9, 2005). Briefly, images of the aortas were captured by a video camera (Nikon) fixed to a microscope (Nikon), and projected on a monitor; using the software Nis-Element. Lumen areas (LA) and total areas (TA) were calculated and recorded. The tunica media area (TMA) was obtained from the difference between the TA and LA of the aorta. The tunica media thickness (TMT) was defined as the region delimited by the external elastic lamina (EEL) and internal elastic lamina (IEL).

The subject of a further test is ED-1. The test can be described thus: Goldblatt model: ventricular content of ED-1. The note with it: GB rats, ventricle.
From the text: as §1
Immunostaining was performed using the streptavidin-biotin-peroxidase method with the inflammation marker ED-1. This is a glycoprotein expressed primarily in the lysosomal membrane of active macrophages (Leskovar et al. J. Exp. Biol. 203:1783-1795, 2000).
In order to block endogenous peroxidase, the samples were deparaffinized, rehydrated and treated with 10% H2O2 in methanol for 1 h. Then, the tissues were incubated with monoclonal antibody anti ED-1 (clone MCA341R, Serotec) diluted 1/1000 in 1% BSA prepared in PBS-0.05% Tween 20 overnight at 4° C. in a humid chamber. The sections were washed three times with 1×PBS-0.05% Tween 20, pH 7.4 for 5 min and incubated with the biotinylated secondary antibody for 30 min at room temperature. […]

With DRVYIHPFH, in test [1], the “decrease of cardiomyocyte area as compared to hypertensive rats” value came to 16% and the “decrease of cardiomyocyte perimeter as compared to hypertensive rats” value stood at 22%. Moreover, in test [2], the “decrease of VFTC as compared to untreated hypertensive rats” value is recorded as 41%. Besides, in test [2] (untreated GB 6.5±1), the volume fraction of total collagen (VFTC) came out at 3.8%. Also, in test [3], the “increase in TMA” value is reported as “reduced significantly”, the “increase in TMA/AL” value is listed as “reduced significantly” and the “increase in TMT” value is given as “reduced significantly”. Further, in the test with ED-1, the “# Positive cells (ED-1)” value is given as 0-20; the “Assigned value (ventricular content of ED-1)” value was 1^# (Low number of ED1 and isolated).
